Patent US11186564B2, “Dual NAV1.2/5HT2a inhibitors for treating CNS disorders” (Sunovion Pharmaceuticals Inc., priority 2016, dated 2021)

Key:
[1] = target: human sodium channel NaV1.2 (Homo sapiens, UniProt Q99250); assay: NaV1.2 inhibition, automated patch-clamp (Q-Patch HTX), slow inactivated state (state C); type: cell-based; conditions: hNaV1.2 CHO cells, slow inactivated state; for IC50: read-out: NaV1.2 IC50; for inhibition at 1 µM: 1 μM compound, read-out: NaV1.2 (% inh), 1 μM
In short: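 CHO K-1 cells stably expressing human NaV1.2, whole-cell automated patch clamp, holding −100 mV; slow-inactivated state (state C) read at a 5 ms step to 0 mV after 10 s at −50 mV and 15 ms at −90 mV. Percent inhibition vs vehicle; IC50 by nonlinear least-squares fit.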

[2] = target: T1, recombinant human serotonin receptor 5-HT2A (Homo sapiens, UniProt P28223); assay: 5-HT2A antagonist Ca2+ assay in CHO-K1 cells (method A aequorin luminescence / method B FLIPR fluorescence); type: cell-based; conditions: antagonist mode vs EC80 of reference agonist, method A or B, read-out: 5HT2A IC50
T1 construct: expressed in transfected cells; method B: loaded with Ca2+ dye
T1 sequence (P28223 whole entry): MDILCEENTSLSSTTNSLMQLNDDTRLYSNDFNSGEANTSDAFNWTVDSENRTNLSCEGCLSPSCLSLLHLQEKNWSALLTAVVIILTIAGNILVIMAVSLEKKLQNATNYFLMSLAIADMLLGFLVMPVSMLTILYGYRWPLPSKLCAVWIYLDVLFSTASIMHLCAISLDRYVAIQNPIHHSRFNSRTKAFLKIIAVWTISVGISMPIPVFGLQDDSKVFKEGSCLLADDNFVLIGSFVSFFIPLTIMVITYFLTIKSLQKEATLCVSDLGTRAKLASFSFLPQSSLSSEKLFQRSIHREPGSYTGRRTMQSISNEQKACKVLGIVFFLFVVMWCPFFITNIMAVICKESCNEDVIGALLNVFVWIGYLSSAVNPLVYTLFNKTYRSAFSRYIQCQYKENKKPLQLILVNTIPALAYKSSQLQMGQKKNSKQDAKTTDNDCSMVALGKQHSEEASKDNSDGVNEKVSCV
In short: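 Method A: CHO-K1 cells co-expressing human 5-HT2A and mitochondrial apoaequorin were given reference agonist at EC80 15 min after compound, with luminescence read. Method B: dye-loaded 5-HT2A CHO-K1 cells were pretreated with compound, then given serotonin at EC80, with FLIPR fluorescence read. IC50s came from nonlinear fits of percent inhibition.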

Chain of human sodium channel NaV1.2 (Q99250 whole entry): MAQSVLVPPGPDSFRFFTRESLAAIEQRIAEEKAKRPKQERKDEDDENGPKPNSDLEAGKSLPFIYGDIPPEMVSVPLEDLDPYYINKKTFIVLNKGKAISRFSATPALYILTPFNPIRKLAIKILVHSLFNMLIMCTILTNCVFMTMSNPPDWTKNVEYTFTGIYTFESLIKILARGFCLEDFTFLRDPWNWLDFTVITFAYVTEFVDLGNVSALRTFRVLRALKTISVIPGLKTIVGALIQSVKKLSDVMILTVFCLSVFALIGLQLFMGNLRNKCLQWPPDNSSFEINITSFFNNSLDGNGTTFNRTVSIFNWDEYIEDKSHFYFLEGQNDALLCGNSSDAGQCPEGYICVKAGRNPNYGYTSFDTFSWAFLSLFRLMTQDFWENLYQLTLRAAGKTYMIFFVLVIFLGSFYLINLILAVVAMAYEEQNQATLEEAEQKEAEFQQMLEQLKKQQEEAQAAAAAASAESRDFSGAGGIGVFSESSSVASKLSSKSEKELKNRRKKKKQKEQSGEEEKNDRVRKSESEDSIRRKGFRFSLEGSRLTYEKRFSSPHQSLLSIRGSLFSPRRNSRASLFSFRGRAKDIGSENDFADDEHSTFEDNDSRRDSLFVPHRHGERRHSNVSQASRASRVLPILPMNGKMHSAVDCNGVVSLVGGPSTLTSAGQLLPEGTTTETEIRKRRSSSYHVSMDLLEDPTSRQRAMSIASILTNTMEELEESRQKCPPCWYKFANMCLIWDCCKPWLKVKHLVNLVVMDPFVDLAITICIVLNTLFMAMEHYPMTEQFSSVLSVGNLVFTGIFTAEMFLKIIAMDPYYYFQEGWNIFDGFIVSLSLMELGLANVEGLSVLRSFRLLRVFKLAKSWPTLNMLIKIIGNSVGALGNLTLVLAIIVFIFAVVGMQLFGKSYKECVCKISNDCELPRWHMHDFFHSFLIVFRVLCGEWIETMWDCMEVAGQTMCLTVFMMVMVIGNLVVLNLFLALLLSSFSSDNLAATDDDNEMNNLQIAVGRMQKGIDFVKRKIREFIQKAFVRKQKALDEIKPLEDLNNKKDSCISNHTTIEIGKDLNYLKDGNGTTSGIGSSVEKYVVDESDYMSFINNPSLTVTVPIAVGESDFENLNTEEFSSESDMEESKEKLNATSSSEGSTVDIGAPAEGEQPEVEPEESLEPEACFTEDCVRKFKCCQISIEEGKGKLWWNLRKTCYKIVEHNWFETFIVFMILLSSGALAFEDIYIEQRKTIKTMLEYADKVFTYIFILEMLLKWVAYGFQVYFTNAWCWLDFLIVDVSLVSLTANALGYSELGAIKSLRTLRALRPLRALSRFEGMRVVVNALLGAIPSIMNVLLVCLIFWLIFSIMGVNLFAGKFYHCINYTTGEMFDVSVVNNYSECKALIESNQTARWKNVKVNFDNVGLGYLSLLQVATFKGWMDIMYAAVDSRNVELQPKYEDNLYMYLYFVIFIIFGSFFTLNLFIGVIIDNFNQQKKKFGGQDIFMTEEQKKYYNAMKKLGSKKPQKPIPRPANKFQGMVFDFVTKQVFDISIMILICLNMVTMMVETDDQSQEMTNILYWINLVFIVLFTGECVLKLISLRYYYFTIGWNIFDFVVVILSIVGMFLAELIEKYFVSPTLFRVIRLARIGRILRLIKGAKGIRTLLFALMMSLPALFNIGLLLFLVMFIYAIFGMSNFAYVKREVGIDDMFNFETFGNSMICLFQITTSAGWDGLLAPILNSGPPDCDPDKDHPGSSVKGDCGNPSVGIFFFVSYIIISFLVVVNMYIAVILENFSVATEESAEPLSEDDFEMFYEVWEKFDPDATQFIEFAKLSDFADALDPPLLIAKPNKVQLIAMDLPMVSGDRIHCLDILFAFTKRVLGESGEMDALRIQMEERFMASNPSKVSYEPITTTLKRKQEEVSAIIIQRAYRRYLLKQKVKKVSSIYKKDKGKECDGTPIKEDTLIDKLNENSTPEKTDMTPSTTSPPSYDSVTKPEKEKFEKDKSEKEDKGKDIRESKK

Compound COc1ccc2c(c1)C(CN1CCC(OCc3ccc(F)cc3)CC1)CC2 (centres unmarked) [Example 247, 4-((4-fluorobenzyl)oxy)-1-((6-methoxy-2,3-dihydro-1H-inden-1-yl)methyl)piperidine] has an IC50 [1] of 270 nM and an IC50 [2] of 100 nM.

Fc1ccc(COC2CCN(CC3CCOc4ccccc43)CC2)cc1 (centres unmarked) [Example 249, 1-(chroman-4-ylmethyl)-4-((4-fluorobenzyl)oxy)piperidine] gave an IC50 [1] of 630 nM and an IC50 [2] of 210 nM.

In the case of COc1ccc2c(c1)C(CN1CCC(NS(=O)(=O)c3ccc(F)cc3)CC1)CC2 (centres unmarked) [Example 250, 4-fluoro-N-(1-((6-methoxy-2,3-dihydro-1H-inden-1-yl)methyl)piperidin-4-yl)benzenesulfonamide], the IC50 [1] is reported as 200 nM and the IC50 [2] is reported as 70 nM.

c1ccc(CC2CN(CC3CCc4ccccc43)CCO2)cc1 (centres unmarked) [Example 251, 2-benzyl-4-((2,3-dihydro-1H-inden-1-yl)methyl)morpholine] gave an inhibition at 1 µM [1] of 23% and an IC50 [2] of 370 nM.

Compound Fc1ccc(O[C@@H]2CCCN(CC3CCc4ccccc43)C2)cc1 (stereo partly drawn) [Example 253, (3R)-1-((2,3-dihydro-1H-inden-1-yl)methyl)-3-(4-fluorophenoxy) piperidine] has an inhibition at 1 µM [1] of 21% and an IC50 [2] of 1170 nM.

For Fc1ccc(O[C@H]2CCCN(CC3CCc4ccccc43)C2)cc1 (stereo partly drawn) [Example 254, (3S)-1-((2,3-dihydro-1H-inden-1-yl)methyl)-3-(4-fluorophenoxy)piperidine], the IC50 [1] was 770 nM and the IC50 [2] was 520 nM.

COc1ccc2c(c1)C(CN1CCC[C@@H](Oc3ccc(F)cc3)C1)CC2 (stereo partly drawn) [Example 255, (3R)-3-(4-fluorophenoxy)-1-((6-methoxy-2,3-dihydro-1H-inden-1-yl)methyl)piperidine] showed an inhibition at 1 µM [1] of 14% and an IC50 [2] of 360 nM.

With Fc1ccc(O[C@H]2CCCN(CC3COCc4ccccc43)C2)cc1 (stereo partly drawn) [Example 261, (3S)-3-(4-fluorophenoxy)-1-(isochroman-4-ylmethyl)piperidine] the inhibition at 1 µM [1] was 22% and the IC50 [2] was 350 nM.

For CN1CCN(CC2CCc3ccccc32)CC1COc1ccc(F)cc1 (centres unmarked) [Example 270, 4-((2,3-dihydro-1H-inden-1-yl)methyl)-2-((4-fluorophenoxy)methyl)-1-methylpiperazine], the inhibition at 1 µM [1] was 56% and the IC50 [2] was 110 nM.

Work on Fc1ccc(OC2CCCN(CC3CCc4ccccc43)CC2)cc1 (centres unmarked) [Example 271, 1-((2,3-dihydro-1H-inden-1-yl)methyl)-4-(4-fluorophenoxy)azepane] yielded an inhibition at 1 µM [1] of 44% and an IC50 [2] of 230 nM.

With Fc1ccc(OC2CCCN(CC3COc4ccccc43)CC2)cc1 (centres unmarked) [Example 272, 1-((2,3-dihydrobenzofuran-3-yl)methyl)-4-(4-fluorophenoxy)azepane] the IC50 [1] was 830 nM and the IC50 [2] was 10 nM.

O=C1c2ccccc2CCN1CCN1CCCC(Oc2ccc(F)cc2)CC1 (centres unmarked) [Example 274, 2-(2-(4-(4-fluorophenoxy)azepan-1-yl)ethyl)-3,4-dihydroisoquinolin-1(2H)-one] was tested, and the inhibition at 1 µM [1] was 27% and the IC50 [2] was 190 nM.

Fc1ccc(OC2CCCCN(CC3CCc4ccccc43)C2)cc1 (centres unmarked) [Example 275, 1-((2,3-dihydro-1H-inden-1-yl)methyl)-3-(4-fluorophenoxy)azepane] was tested, and the inhibition at 1 µM [1] was 2% and the IC50 [2] was 400 nM.

Fc1ccc(OC2COCCN(CC3CCc4ccccc43)C2)cc1 (centres unmarked) [Example 276, 4-((2,3-dihydro-1H-inden-1-yl)methyl)-6-(4-fluorophenoxy)-1,4-oxazepane] was tested, and the IC50 [1] was 440 nM and the IC50 [2] was 400 nM.

In the case of CN1CCN(CC2CCc3ccccc32)CC(Oc2ccc(F)cc2)C1 (centres unmarked) [Example 277, 1-((2,3-dihydro-1H-inden-1-yl)methyl)-6-(4-fluorophenoxy)-4-methyl-1,4-diazepane], the inhibition at 1 µM [1] is reported as 31% and the IC50 [2] is reported as 100 nM.

OC(COC1CCCCC1)CN1[C@@H]2C[C@H]1CN(c1ccccc1)C2 (stereo partly drawn) [Example 281, 1-(cyclohexyloxy)-3-((1R,5S)-3-phenyl-3,6-diazabicyclo[3.1.1]heptan-6-yl)propan-2-ol] gave an IC50 [1] of 1790 nM and an IC50 [2] of 1360 nM.
